From ChEMBL document CHEMBL1649582, “Novel expression vector for secretion of cecropin AD in Bacillus subtilis with enhanced antimicrobial activity” (Antimicrob Agents Chemother, 2009)
≈ marks a conversion by molar mass, not a printed value. Calls of active or inactive are those of the source. The rule behind the calls is not given here. Where a SMILES comes first, the peptide text is derived from it.

Tests used:
Staphylococcus aureus [1] = assay: Antimicrobial activity against Staphylococcus aureus IVDC C56005 assessed as microbial growth inhibition in presence of pepsin; type: functional, organism-based
Salmonella typhimurium = assay: Antimicrobial activity against Salmonella enterica serovar Typhimurium IVDC C77-31 by microdilution assay; type: functional, Salmonella enterica subsp. enterica serovar Typhimurium
Enterococcus faecalis = assay: Antimicrobial activity against Streptococcus faecalis IVDC C55614 by microdilution assay; type: functional
Staphylococcus aureus [2] = assay: Antimicrobial activity against Staphylococcus aureus IVDC C56005 assessed as microbial growth inhibition at pH <4.0; type: functional, organism-based
Staphylococcus aureus [3] = assay: Antimicrobial activity against Staphylococcus aureus IVDC C56005 assessed as microbial growth inhibition at 55 degC for 20 mins; type: functional, organism-based
Staphylococcus aureus [4] = assay: Antimicrobial activity against Staphylococcus aureus IVDC C56005 assessed as microbial growth inhibition in presence of trypsin; type: functional, organism-based
Staphylococcus aureus [5] = assay: Antimicrobial activity against Staphylococcus aureus IVDC C56005 assessed as microbial growth inhibition at pH 4 to 9; type: functional, organism-based
Salmonella enteritidis = assay: Antimicrobial activity against Salmonella enterica serovar Enteritidis IVDC C79-52 by microdilution assay; type: functional, Salmonella enterica subsp. enterica serovar Enteritidis
Escherichia coli [6] = assay: Antimicrobial activity against Escherichia coli K99 by microdilution assay; type: functional
Escherichia coli [7] = assay: Antimicrobial activity against Escherichia coli K12D31 by microdilution assay; type: functional
Staphylococcus aureus [8] = assay: Antimicrobial activity against Staphylococcus aureus IVDC C56005 assessed as microbial growth inhibition at >85 degC for 20 mins; type: functional, organism-based
Escherichia coli [9] = assay: Antimicrobial activity against Escherichia coli K88 by microdilution assay; type: functional
Staphylococcus aureus [10] = assay: Antimicrobial activity against Staphylococcus aureus IVDC C56005 by microdilution assay; type: functional
[11] = Toxicity in human RBCs assessed as induction hemolysis at 0.01 to 200 ug/mL; type: cell-based; conditions: erythrocyte
Staphylococcus aureus [12] = assay: Antimicrobial activity against Staphylococcus aureus IVDC C56005 assessed as microbial growth inhibition in presence of proteinase K; type: functional, organism-based

CC[C@H](C)[C@H](NC(=O)[C@H](CCCCN)NC(=O)[C@H](CCCCN)NC(=O)[C@H](Cc1ccccc1)NC(=O)[C@H](CC(C)C)NC(=O)[C@H](CCCCN)NC(=O)[C@H](Cc1c[nH]c2ccccc12)NC(=O)[C@@H](N)CCCCN)C(=O)N[C@@H](CCC(=O)O)C(=O)N[C@@H](CCCCN)C(=O)N[C@H](C(=O)NCC(=O)N[C@@H](CCC(N)=O)C(=O)N[C@@H](CCCNC(=N)N)C(=O)N[C@H](C(=O)N[C@@H](CCCNC(=N)N)C(=O)N[C@@H](CC(=O)O)C(=O)N[C@@H](C)C(=O)N[C@H](C(=O)N[C@H](C(=O)N[C@@H](CO)C(=O)N[C@@H](C)C(=O)NCC(=O)N1CCC[C@H]1C(=O)N[C@@H](C)C(=O)N[C@H](C(=O)N[C@@H](C)C(=O)N[C@H](C(=O)N[C@H](C(=O)N[C@@H](C)C(=O)N[C@@H](CCC(N)=O)C(=O)N[C@@H](C)C(=O)N[C@H](C(=O)N[C@@H](C)C(=O)N[C@@H](CC(C)C)C(=O)N[C@@H](C)C(=O)N[C@@H](CCCCN)C(=O)O)[C@@H](C)O)C(C)C)[C@@H](C)O)C(C)C)[C@@H](C)CC)C(C)C)C(C)C)C(C)C [CECROPIN AD] (H-KWKLFKKIEKVGQRVRDAVISAGPAVATVAQATALAK-OH)
growth inhibition (GI) (Staphylococcus aureus [1]): Active
MIC (Salmonella typhimurium): 8 µg/mL (≈ 2.02 µM)
MIC (Enterococcus faecalis): 24 µg/mL (≈ 6.07 µM)
growth inhibition (GI) (Staphylococcus aureus [2]): inactive
growth inhibition (GI) (Staphylococcus aureus [3]): Active
growth inhibition (GI) (Staphylococcus aureus [4]): Active
growth inhibition (GI) (Staphylococcus aureus [5]): Active
MIC (Salmonella enteritidis): 16 µg/mL (≈ 4.05 µM)
MIC (Escherichia coli [6]): 2 µg/mL (≈ 0.506 µM)
MIC (Escherichia coli [7]): 1.8 µg/mL (≈ 0.456 µM)
growth inhibition (GI) (Staphylococcus aureus [8]): inactive
MIC (Escherichia coli [9]): 2 µg/mL (≈ 0.506 µM)
MIC (Staphylococcus aureus [10]): 0.2 µg/mL (≈ 0.0506 µM)
Activity [11]: Non-toxic
growth inhibition (GI) (Staphylococcus aureus [12]): Active
